Source: US12428394B2, “2,4-disubstituted pyrimidine derivative, preparation method therefor and use thereof” (CHENGDU ZENITAR BIOMEDICAL TECHNOLOGY CO., LTD., priority 2019, dated 2025)
Read-outs that look alike come from different tables or passages of the source.

What was measured:
[1] = system: MV4-11 cells (FLT3-ITD+/+); test: Inhibition of cell proliferation by MTT experiment, MV4-11; assay type: cell-based, human; conditions: Homo sapiens, MV4-11, 72 h, read-out: IC50 value on cell proliferation inhibition, MV4-11 FLT3-ITD+/+
Method in brief: (§1)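 MTT assay in MV4-11, MOLM-13 (FLT3-ITD) and SET-2 (JAK2 V617F) cells at 10,000–15,000 cells/well in IMDM with 10% FBS. Cells are exposed to compound for 72 h at 37 °C, then to MTT for 1–3 h. IC50 is fitted from inhibition rates across concentrations.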

[2] = system: MOLM-13 cells (FLT3-ITD-/+); test: Inhibition of cell proliferation by MTT experiment, MOLM-13; assay type: cell-based, human; conditions: Homo sapiens, MOLM-13, 72 h, read-out: IC50 value on cell proliferation inhibition, MOLM-13 FLT3-ITD-/+
Method in brief: as §1

MV4-11 cells = assay type: in vivo; conditions: for Tumor inhibition rate (%): MV4-11 model, oral, QD × 6
Protocol: (§2) MV4-11 cells and SET-2 cells were used to establish a mouse xenograft model to investigate the efficacy. NOD/SCID immunocompromised mice (purchased from Beijing Huafukang Biotechnology Co., Ltd.) were received and acclimated to the environment until they were normalized in diet and activity. MV4-11 and SET-2 cells were routinely incubated and grew to 80% fusion degree. Then, the cells were collected and counted on a blood cell counting plate, with the cell concentration adjusted to 3×10^7 cells/mL. After the cells were collected, 100 μL of cell suspension was inoculated subcutaneously on the back of mice. When the tumor volume reached 100 mm^3, the drug administration was started. The dosage regimen was oral administration every day. […].

SET-2 cells = assay type: in vivo; conditions: for Tumor inhibition rate (%): SET-2 model, oral
Protocol: as §2

[3] = system: Ba/F3-EpoR-JAK2V617F cells; test: Ba/F3-EpoR-JAK2V617F-driven malignant tumor mouse model; assay type: in vivo, Babl/c-nude mice; conditions: oral twice a day
Protocol: Babl/c-nude mice (Beijing Huafukang Biotechnology Co., Ltd.) were received and acclimated to the environment until these mice were normalized in diet and activity, and the modeling began. Ba/F3-EpoR-JAK2V617F cells (State Key Laboratory of Biotherapy, Sichuan University) were routinely incubated and grew to 80% fusion degree. Then the cells were centrifuged at 1000 rpm for 3 min., collected, resuspended by PBS and counted by a cell counter; while the survival rate of the cells was calculated. Only when the proportion of living cells exceeds 90%, can the cells be used in the experiment, with the cell concentration adjusted to 1×10^7 cells/mL. After the cells were collected, the cell suspension was pre-cooled on ice. Each mouse was inoculated as per 1.0×10^6, and batch induction modeling was carried out.

JAK2V617F = test: JAK2V617F-induced myelofibrosis mouse model; assay type: in vivo, BALB/c mice; conditions: 30 mg/Kg, oral twice a day, after 8 weeks of treatment
Source text: JAK2 mutant JAK2V617F gene vector MSCV-JAK2V617F-GFP (Chengdu Wandao Biotechnology Development Co., Ltd.) and BALB/c mice (Jiangsu Jicui Yaokang Biotechnology Co., Ltd.) were provided as donors. The mouse bone marrow cells were sampled and infected with JAK2V617F virus, and the infected cells were reinfused into BALB/c recipient mice irradiated by X-rays through tail vein. Then, the JAK2V617F-positive myelofibrosis mouse model was induced. […] The administration route was oral administration twice a day, and the mice in the blank control group and the model group took the same volume of normal saline orally. […] Therefore, modifications or improvements made without departing from the spirit of the present invention are within the scope of protection of the present invention.

## Cc1cnc(Nc2ccc(N3CCC(N(C)CCO)CC3)c(F)c2)nc1-c1cnn(C(C)C)c1 [CLJ-44, 5-methyl-N-(3-fluoro-4-(4-N-hydroxyethyl-4-N-methylaminopiperidine-1-yl)phenyl)-4-(1-isopropyl-1H-pyrazole-4-yl) pyrimidine-2-amine]
[1]
  IC50: 1 to 10 nM
[2]
  IC50: 10 to 100 nM
MV4-11 cells; 30 mg/kg
  Tumor inhibition rate (%): 58%
MV4-11 cells; 60 mg/kg
  Tumor inhibition rate (%): 93%
MV4-11 cells; mouse, in vivo
  tolerability, effect on body weight: well tolerated and has no adverse effect on body weight
SET-2 cells; 30 mg/kg
  Tumor inhibition rate (%): 66%
SET-2 cells; 60 mg/kg
  Tumor inhibition rate (%): 85%
SET-2 cells; mouse, in vivo
  tolerability, effect on body weight: well tolerated and has no adverse effect on body weight
[3]; 7.5 mg/Kg
  inhibition of spleen growth: 18.74%
[3]; 15 mg/Kg
  inhibition of spleen growth: 35.67%
[3]; 30 mg/Kg
  inhibition of spleen growth: 79.79%
[3]; 45 mg/Kg
  inhibition of spleen growth: 101.08%
  spleen weight: restored to the weight of a normal mouse
JAK2V617F
  inhibition of growth rate of spleen: 96.73%
